The results in this text go back to patent publication US9375424B2, “Compounds that treat malaria and prevent malaria transmission” (The United States of America, as represented by the …, priority 2009, dated 2016).

Structures can show the parent of a compound that is named as a salt. Where two headings read alike, the source gives them in different places.

One assay deals with P. falciparum lines. Description: qHTS SYBR Green Plasmodium proliferation assay in infected erythrocytes (seven parasite lines). To be noted: Erythrocyte, read-out: IC50, inhibition of proliferation in all parasite lines. It is filed as cell-based. As to the method: The P. falciparum lines used in this study have been described previously (Mu J, et al. Multiple transporters associated with malaria parasite responses to chloroquine and quinine. Mol Microbiol 2003;49:977-989). […] Briefly, 3 μl culture medium was dispensed into 1536-well black clear-bottom plates (Aurora Biotechnologies) using a Multidrop Combi (Thermo Fisher Scientific Inc.); 23-nL compounds in DMSO were added by a pin tool (Kalypsys), and 5 μl of P. falciparum-infected RBCs (0.3% parasitemia, 2.5% hematocrit final concentration) were added. The plates were incubated at 37° C. in a humidified incubator in 5% CO2 for 72 h, and 2 μl lysis buffer (20 mM Tris-HCl, 10 mM EDTA, 0.16% saponin, 1.6% triton-X, 10× SYBR Green I supplied as 10,000× final concentration by Invitrogen) was added to each well. The plates were mixed for 25 sec with gentle shaking and incubated overnight at room temperature in the dark. The following morning, fluorescence intensity at 485 (14) nm excitation and 535 (25) nm emission wavelengths was measured on an En Vision (Perkin Elmer) plate reader. […] The plates were incubated at 37° C. under 5% CO2, 5% 02, and 90% N2 for 72 h, incubated for another 30 min after addition of 50 μl lysis buffer, and read in a FLUOstar OPTIMA reader (BMG Labtech). Data were analyzed using software at the NIAID Bioinformatic Resources (niaid-biocluster.niaid.nih.gov/cgi-bin/bipod2/index.cgi). Parasite proliferation was measured after 72 hr of incubation (corresponding to 1.5 generations of intra-erythrocytic parasite growth), with each compound tested at seven or eight five-fold dilutions beginning at 29 μM. […] The potencies of known antimalarial agents had similar values determined by the assay in 96-well plate format. […] Although the determined potencies of 4 were lower, the relative potency between lines sensitive to 4, HB3, 3D7, and D10 were clearly distinguished from resistant lines. […] The potencies of compounds scored as active or inconclusive in both replicates correlated well indicating good repeatability in determining IC50 values between replicates.

Assay [1] concerns Plasmodium yoelii nigeriensis. The class given is in vivo. To be noted: for oocyst formation: mosquito feeding 1 hr after treatment (FIG. 1A), untreated control average 460 oocysts per mosquito. As to the method: Mice infected with Plasmodium yoelii nigeriensis were treated with drugs in different concentrations for various time periods and were exposed to mosquitoes. Oocysts were counted from dissected midgut 9-10 days after feeding. FIG. 1A, the number of oocysts from mosquitoes fed on mice treated with different TAA compounds for 1 hour. CAR, carbita Pentane (100 mg/kg); CHL, chlorpromazine (30 mg/kg); DEQ, dequalinium dichloride (10 mg/kg); Dox, doxipin hydrochloride (30 mg/kg); Ima, Imipramine (100 mg/kg), KET, ketotifen (100 mg/kg); Pro, protryptiline hydrochloride (10 mg/kg). FIG. 1B, the number of oocysts from mosquitoes fed on mice treated with different concentrations of ketotifen (KET) for 1 hour, compared with those treated with standard anti-malarial drugs, primaquine (PQ, 5 and 10 mg/kg), arteminisinin (ART, 5 mg/kg) and chloroquine (CQ, 10 mg/kg). FIG. 1C, the number of oocysts from mosquitoes fed on mice treated with a single dose of 0.5 mg/kg or 0.1 mg/kg of ketotifen (KET) for 1, 6 or 24 hours. FIG. 1D, the number of oocysts from mosquitoes fed on mice treated with two doses of 0.5 mg/kg or 0.1 mg/kg (filled symbol) of ketotifen (KET) for 1, 6 or 24 hours. CON, no drug control.
For testing transmission-blocking activity in vivo, CD-1 strain female mice, aged 6-8 weeks old, were infected intra-peritoneally (i.p.) with 5×106 P. yoelii nigeriensis. In a preliminary experiment, on day 3 post infection the animals were administrated i.p. a single dose of tricyclic antihistamine and antidepressants (TAA) compound or pharmaceutical-grade phosphate buffer saline (pH 7.4). Starting 1 hr after the administration of the TAA compound, the animals were anesthetized and brought into contact with a colony of Anopheles stephensimosquitoes. The mosquitoes were allowed to feed on the mice. Unfed or partially engorged mosquitoes were removed from the cages. The mosquitoes were maintained for 9-10 days 24 ±1° C. and 80-90% relative humidity. The gametocytocidal activity of the test compound was accessed on the basis of the oocyst counts in mosquitoes fed on treated animals and a control group. In subsequent experiments, the gametocytocidal action of ketotifin at different concentrations and doses was evaluated similarly. One group was given a single dose of 0.1, 0.5, 1, 5, 10, 30 or 60 mg/kg on day 3 post infection and subjected to mosquito feeding 1 hr after compound administration. Primaquine, chloroquine and arteminsin were used as reference drugs. The other group was given one dose or two doses of 0.1 or 0.5 mg/kg at 4 hr interval and subjected to mosquito feeding 1, 6 or 24 hrs after the final drug administration.

Assay [2] concerns P. falciparum gametocytes. The experiment in a line: killing of P. falciparum gametocytes in vitro. It is filed as cell-based, Plasmodium falciparum.
The mark [3] stands for this setting: all seven parasite lines, 72 h incubation.
Setting [4] is: 5 mg/kg single dose, treatment for 1 hr.
Where [5] appears, read: two doses of 0.5 mg/kg at 4 hours interval, 24-hour treatment.

Take `Cc1cc(N)c2ccccc2[n+]1CCCCCCCCCC[n+]1c(C)cc(N)c2ccccc21` [dequalinium dichloride]: in the assay with P. falciparum lines (setting [3]), the IC50 is less than 2000 nM.

Turning to `CN1CCC(=C2c3ccccc3CC(=O)c3sccc32)CC1` [ketotifen], the “average number of oocysts per mosquito” value in assay [1] (1 mg/kg single dose, treatment for 1 hr (FIG. 1B)) is 34 oocysts per mosquito. In addition, the “mosquitoes that had oocysts” value is on record as 2 of 44 in assay [1] (setting [4]) and 4 of 23 in assay [1] (setting [5]). Further, the oocyst counts in assay [1] (setting [4]) was 0.13 oocysts per mosquito; in assay [1] (single dose 0.1 mg/kg, 24 hours prior to mosquito feeding (FIG. 1C)), 82 oocysts per mosquito; in assay [1] (single dose 0.5 mg/kg, 24 hours prior to mosquito feeding (FIG. 1C)), 12 oocysts per mosquito; in assay [1] (two doses of 0.1 mg/kg at 4 hours interval, 24-hour treatment time (FIG. 1D)), 80 oocysts per mosquito; in assay [1] (two doses of 0.5 mg/kg at 4 hours interval, 24-hour treatment (FIG. 1D)), 2 oocysts per mosquito. Moreover, the oocyst development entry in assay [1] (5 mg/kg single dose, treatment for 1 hr (FIG. 1B)) was “almost completely blocked oocyst development”. In addition, the oocyst formation result in assay [1] (100 mg/kg single dose i.p.) was “strong reduction in oocyst formation”. Moreover, the “dose achieving similar reduction in oocyst count to primaquine, as share of the primaquine dose” value in assay [1] (relative to primaquine dose) was 10%. The “oocysts in the mosquitoes” value in assay [1] (setting [5]) is “almost completely eliminated oocysts”. The “concentration that completely kills P. falciparum gametocytes in vitro” value in assay [2] came to 0.5 µM.

`COc1cc(NC(C)CCCN)c2ncccc2c1` (stereo not shown) [primaquine]: in assay [1] (setting [4]), the “mosquitoes that had oocysts” value is 7 of 21 and the oocyst counts worked out at 6 oocysts per mosquito.

In the case of `CNCCCC1c2ccccc2C=Cc2ccccc21` [protryptiline hydrochloride], in assay [1] (10 mg/kg single dose i.p.), the oocyst formation entry was “strong reduction in oocyst formation”.

As to `CCN(CC)CCCC(C)Nc1c2ccc(Cl)cc2nc2ccc(OC)cc12` (stereo not shown) [quinacrine], in the assay on P. falciparum lines (72 h), the IC50 was less than 2000 nM.

As for `CC(=O)O[C@H]1C(=O)[C@@]2(C)[C@H]([C@H](OC(=O)c3ccccc3)[C@]3(O)C[C@H](OC(=O)[C@H](O)[C@@H](NC(=O)c4ccccc4)c4ccccc4)C(C)=C1C3(C)C)[C@]1(OC(C)=O)CO[C@@H]1C[C@@H]2O` [taxol], in the assay with P. falciparum lines (setting [3]), the IC50 was less than 2000 nM.
